In patent US12410163B2, “Compounds as GLP-IR agonists” (Terns Pharmaceuticals, Inc., priority 2022, dated 2025):

Assay: Metabolic stability in hepatocytes
Assay type: in vitro ADME
Conditions: cryopreserved human hepatocytes (suspension), 1×10^6 cells/mL; for CLint scaled at 1 μM: intrinsic clearance, read-out: hHep CLint; for half-life at 1 μM: 0-240 min, read-out: hHep t1/2
Method: Test compounds are incubated in human hepatocytes and stability is assessed from the substrate […] approach. Test compounds are dissolved in dimethyl sulfoxide (DMSO) to create a 10 mM Stock, and then further diluted to create a 1000× Working Stock of 1 mM with DMSO in 96-well plates for test compounds and the positive control (midazolam). Vials containing cryopreserved hepatocytes are removed from the liquid nitrogen tank and immediately immersed in a 37° C. water bath. The vials are shaken gently until the contents had thawed and were then immediately emptied into 48 mL of pre-warmed HT Medium in a 50 mL conical tube. Cells remaining in the vial are resuspended with 1.0 mL of pre-warmed HT Medium and added to the conical tube. The tube is capped and then gently inverted several times to resuspend the hepatocytes. The cell suspension is centrifuged at 50×g at room temperature for 5 minutes and the supernatant discarded. The cell pellet is loosened by gently swirling the centrifuge tube and is re-suspended in 4 mL of warm Dulbecco's Modified Eagle medium (DMEM). Cell density is determined by a cell counter by Nexcelom, and DMEM medium is added to obtain a target density of 1×10^6 cells/mL. The assay is carried out in 96-well microtiter plates. Test Compounds are incubated at 1 μM with 1×10^6 cells/mL hepatocytes in DMEM for 0, 30, 60, 120 and 240 minutes. The incubation is carried out with gentle shaking at 37° C. under a humid atmosphere of 95% air/5% CO2. The volume of the incubation mixture is 37 μL with a final 0.1% DMSO. At each of the time points, the incubation is stopped by adding 150 μL quenching solution (100% acetonitrile, 0.1% formic acid containing bucetin as an internal standard for positive ESI mode). Subsequently, the mixtures are vortexed for 20 min and centrifuged at 4,000 RPM at 10° C. The supernatant (80 μL) is transferred to a clean 96-well plate and analyzed by LC-MS/MS. Midazolam at 1 μM with a final 0.1% DMSO is included as a positive control to verify assay performance. The percent parent remaining, intrinsic and predicted hepatic clearance and t1/2 are calculated. All samples are analyzed by LC-MS/MS using an AB Sciex API 4000 instrument, coupled to a Shimadzu LC-20AD LC Pump system. Separation is achieved using a Waters Atlantis T3 dC18 reverse phase HPLC column (20 mm×2.1 mm) at a flow rate of 0.5 mL/min. The mobile phase consisted of 0.1% formic acid in water (solvent A) and 0.1% formic acid in 100% acetonitrile (solvent B). Elution conditions are detailed below.
The ion optics of each test compound are optimized for their declustering potential (DP), […] (CE), collision-cell exit potential (CXP) and used in a selected ion monitoring experiment in the positive ion mode. The peak area ratio of each test compound to internal standard is then evaluated for stability. The extent of metabolism is calculated based on the disappearance of the test compound, compared to its initial concentration. The initial rates of clearance of the test compound are calculated using the linear regression plot of semi-log % remaining of the compound versus time. The elimination rate constant (k) of the linear regression plot is then used to determine t1/2 and the intrinsic clearance (CLint) using the following formula, where Chepatocyte (million cells/mL) is the cell density of the incubation: k=−slope t1/2=0.693/k CLint=k/Chepatocyte
Test compounds were incubated in human hepatocytes and stability was assessed from the substrate […] approach. Test compounds were dissolved in dimethyl sulfoxide (DMSO) to create a 10 mM Stock, and then further diluted to create a 1000× Working Stock of 1 mM with DMSO in 96-well plates for test compounds and the positive control (midazolam). Vials containing cryopreserved hepatocytes were removed from the liquid nitrogen tank and immediately immersed in a 37° C. water bath. […]

Row | SMILES | CLint scaled at 1 μM [mL/min/kg] | half-life at 1 μM [h]
1 | N#Cc1ccc(COc2cccc(N3CCN(Cc4nc5ccc(C(=O)O)cc5n4Cc4cncs4)[C@H]4C[C@H]43)n2)c(F)c1 (single isomer, unassigned) [Compound 2, 2-((5-(6-((4-Cyano-2-fluorobenzyl)oxy)pyridin-2-yl)-2,5-diazabicyclo[4.1.0]heptan-2-yl)methyl)-1-(thiazol-5-ylmethyl)-1H-benzo[d]imidazole-6-carboxylic Acid] | 5.01 | –
2 | N#Cc1ccc(COc2ccnc(N3CCN(Cc4nc5ccc(C(=O)O)cc5n4Cc4cncs4)[C@@H]4C[C@@H]43)n2)c(F)c1 [Compound 20, 2-((5-(4-((4-Cyano-2-fluorobenzyl)oxy)pyrimidin-2-yl)-2,5-diazabicyclo[4.1.0]heptan-2-yl)methyl)-1-(thiazol-5-ylmethyl)-1H-benzo[d]imidazole-6-carboxylic Acid] | 6.4 | 6.27
3 | N#Cc1ccc(COc2cccc([C@H]3CCN(Cc4nc5ccc(C(=O)O)cc5n4Cc4cncs4)[C@@H]4C[C@H]34)n2)c(F)c1 (single isomer, unassigned) [Compound 4, 2-((5-(6-((4-Cyano-2-fluorobenzyl)oxy)pyridin-2-yl)-2-azabicyclo[4.1.0]heptan-2-yl)methyl)-1-(thiazol-5-ylmethyl)-1H-benzo[d]imidazole-6-carboxylic Acid] | 14 | 2.87
4 | CCn1nncc1Cn1c(CN2CCN(c3cccc(OCc4ccc(C#N)cc4F)n3)[C@H]3C[C@H]32)nc2ccc(C(=O)O)cc21 [Compound 45, 2-((5-(6-((4-Cyano-2-fluorobenzyl)oxy)pyridin-2-yl)-2,5-diazabicyclo[4.1.0]heptan-2-yl)methyl)-1-((1-ethyl-1H-1,2,3-triazol-5-yl)methyl)-1H-benzo[d]imidazole-6-carboxylic Acid] | 6.46 | 6.2
5 | CC1(c2ccc(C#N)cc2F)Oc2cccc(N3CCN(Cc4nc5ccc(C(=O)O)cc5n4CC4(C#N)CC4)C4CC43)c2O1 (stereo not drawn) [Compound 40, 2-((5-(2-(4-Cyano-2-fluorophenyl)-2-methylbenzo[d][1,3]dioxol-4-yl)-2,5-diazabicyclo[4.1.0]heptan-2-yl)methyl)-1-((1-cyanocyclopropyl)methyl)-1H-benzo[d]imidazole-6-carboxylic Acid] | 5.86 | 6.85
6 | N#Cc1ccc(COc2cccc([C@@H]3CCN(Cc4nc5ccc(C(=O)O)cc5n4Cc4cncs4)[C@H]4C[C@@H]34)n2)c(F)c1 (single isomer, unassigned) [Compound 15, 2-((5-(6-((4-Cyano-2-fluorobenzyl)oxy)pyridin-2-yl)-2-azabicyclo[4.1.0]heptan-2-yl)methyl)-1-(thiazol-5-ylmethyl)-1H-benzo[d]imidazole-6-carboxylic Acid] | 9.24 | 4.33
7 | CC1(c2ccc(C#N)cc2F)Oc2cccc(C3CCN(Cc4nc5ccc(C(=O)O)cc5n4Cc4cncs4)CC3)c2O1 (stereo not drawn) [Compound 18] | 17.5 | 0.23
8 | N#Cc1ccc(COc2cccc([C@H]3CCN(Cc4nc5ccc(C(=O)O)cc5n4Cc4cncs4)[C@H]4C[C@@H]34)n2)c(F)c1 (single isomer, unassigned) [Compound 14, 2-((5-(6-((4-Cyano-2-fluorobenzyl)oxy)pyridin-2-yl)-2-azabicyclo[4.1.0]heptan-2-yl)methyl)-1-(thiazol-5-ylmethyl)-1H-benzo[d]imidazole-6-carboxylic Acid] | 7.86 | 5.1
9 | N#Cc1ccc(COc2cccc([C@@H]3CCN(Cc4nc5ccc(C(=O)O)cc5n4Cc4cncs4)[C@@H]4C[C@@H]43)n2)c(F)c1 (single isomer, unassigned) [Compound 5, 2-((5-(6-((4-Cyano-2-fluorobenzyl)oxy)pyridin-2-yl)-2-azabicyclo[4.1.0]heptan-2-yl)methyl)-1-(thiazol-5-ylmethyl)-1H-benzo[d]imidazole-6-carboxylic Acid] | 7.46 | 5.37
10 | N#Cc1ccc(COc2cccc(N3CCN(Cc4nc5ccc(C(=O)O)cc5n4Cc4cncs4)[C@@H]4C[C@@H]43)n2)c(F)c1 (single isomer, unassigned) [Compound 1, 2-((5-(6-((4-cyano-2-fluorobenzyl)oxy)pyridin-2-yl)-2,5-diazabicyclo[4.1.0]heptan-2-yl)methyl)-1-(thiazol-5-ylmethyl)-1H-benzo[d]imidazole-6-carboxylic Acid] | 11.9 | 3.36
11 | N#Cc1ccc(COc2cccc(N3CCN(Cc4nc5ccc(C(=O)O)cc5n4C[C@@H]4CCO4)[C@@H]4C[C@@H]43)n2)c(F)c1 (single isomer, unassigned) [Compound 43] | 7.09 | 5.65
